Reference: EP0300812A2, “Platinum triamine antitumor agents containing saturated amines” (ENGELHARD CORPORATION, priority 1987, dated 1989)
Several values for one entry are separate records, joined by “and”; a condition that tells them apart may be missing. Equal values may be shown once.

What was measured:
[1] = tested on: L1210 Leukemia; assay: L1210 leukemia antitumor screening; format: in vivo, Female CDF₁ mice; settings: for %ILS: ILS ≧ 25% represents activity; for Surv.: survivors per 6 mice at three times the MST of controls
Experimental: (§1) Each compound was evaluated in at least one of these screens.
L1210 screening was conducted according to a published method. See Rose, W.C.; Schurig, J.F.; Huftalen, J.B.; Bradner, W.T. Cancer Treat. Rep. […] Female CDF₁ mice (16 - 22 g) were implanted with 1 x 10⁶ tumor cells ip on day zero. Compounds were administered in 0.5 mL water ip on day one. Groups of 6 mice were used for each dose. A control group received only tumor and 0.5 mL water. A positive control group received tumor and 8 mg/kg cisplatin in 0.5 mL of 0.15 M NaCl. The test was terminated after three times the mean survival time (MST) of the control group, surviving mice were counted as dying on that day. Activity was determined based on the percent increase in MST of test mice over controls (%ILS). […] The tumor line was maintained through weekly transfer of 5 x 10⁴ cells in DBA/2 mice.

[2] = tested on: Sarcoma 180 ascites; assay: Sarcoma 180 ascites antitumor screening; format: in vivo, Female CFW mice; settings: for %ILS: ILS ≧ 50% indicates activity; for Surv.: survivors per 6 mice at twice the MST of controls
Experimental: as §1
Female CFW mice (18 - 25 g) were implanted with 2 x 10⁶ cells ip on day zero. Compounds were administered in 0.5 mL water ip on day one. Groups of 6 mice were used for each test dose as well as controls as defined above. The test was run for twice the MST of the control group, with survivors counted as dying on that day. An ILS of ≧ 50% indicates activity. The tumor line was maintained through weekly transfer of 4 x 10⁶ cells in CFW mice.

[3] = S180a, dose 10 mg/kg ip in water on day one
[4] = S180a, dose 20 mg/kg ip in water on day one
[5] = S180a, dose 40 mg/kg ip in water on day one
[6] = S180a, dose 80 mg/kg ip in water on day one
[7] = S180a, dose 160 mg/kg ip in water on day one
[8] = S180a, dose 320 mg/kg ip in water on day one

| Compound | %ILS [2, 3] [%] | Surv. ([2]; S180a, dose 10 mg/kg ip) | %ILS [2, 4] [%] | Surv. ([2]; S180a, dose 20 mg/kg ip) | %ILS [2, 5] [%] | Surv. ([2]; S180a, dose 40 mg/kg ip) | %ILS [2, 6] [%] | Surv. ([2]; S180a, dose 80 mg/kg ip) | %ILS [2, 7] [%] | Surv. ([2]; S180a, dose 160 mg/kg ip) | %ILS [2, 8] [%] | Surv. ([2]; S180a, dose 320 mg/kg ip) | further results |
| --- | --- | --- | --- | --- | --- | --- | --- | --- | --- | --- | --- | --- | --- |
| CC1CCNCC1.N.N.O=[N+]([O-])[O-].[Cl-].[Pt+2] [cis-[Pt(NH3)2(4-methylpiperidine)Cl]NO3, cis-[Pt(NH₃)₂(4-methylpiperidine)Cl]NO₃] | 4 | 0/6 | 13 | 0/6 | 18 | 0/6 | 76 | 1/6 | 4 | 1/6 | -80 | 0/6 | %ILS ([1]; L1210, dose 10 mg/kg ip in water on day one): 24%; Surv. ([1]; L1210, dose 10 mg/kg ip): 0/6; %ILS ([1]; L1210, dose 20 mg/kg ip in water on day one): 17%; Surv. ([1]; L1210, dose 20 mg/kg ip): 0/6; %ILS ([1]; L1210, dose 40 mg/kg ip in water on day one): 60%; Surv. ([1]; L1210, dose 40 mg/kg ip): 0/6; %ILS ([1]; L1210, dose 80 mg/kg ip in water on day one): 57%; Surv. ([1]; L1210, dose 80 mg/kg ip): 0/6; %ILS ([1]; L1210, dose 160 mg/kg ip in water on day one): -28%; Surv. ([1]; L1210, dose 160 mg/kg ip): 0/6; %ILS ([1]; L1210, dose 320 mg/kg ip in water on day one): -68%; Surv. ([1]; L1210, dose 320 mg/kg ip): 0/6 |
| O=[N+]([O-])[O-].[NH3+][Pt-2]([NH3+])([Cl])[NH2+]CC1CCCCC1 (stereo not drawn) [cis-[Pt(NH₃)₂(cyclohexanemethylamine)Cl]NO₃] | 15 | 0/6 | 22 | 0/6 | 19 | 1/6 | 61 | 0/6 | -78 | 0/6 | -94 | 0/6 | – |
| CCCCCCCC[NH2+][Pt-2]([NH3+])([NH3+])[Cl].O=[N+]([O-])[O-] [cis-[Pt(NH3)2(octylamine)Cl]NO3, cis-[Pt(NH₃)₂(octylamine)Cl]NO₃] | 16 | 0/6 | 25 | 0/6 | 22 | 0/6 | -78 | 0/6 | -78 | 0/6 | -95 | 0/6 | activity in the S-180 ascites screen ([2]; statement in words): substantially no activity |
| cis-[Pt(NH₃)₂Cl₂] [Positive Control, reference compound] | – | – | – | – | – | – | – | – | – | – | – | – | Positive Control %ILS ([1]; L1210, positive control 8 mg/kg cisplatin in 0.15 M NaCl ip): 149%; Positive Control Surv. ([1]; L1210, positive control 8 mg/kg cisplatin in 0.15 M NaCl ip, survivors per 6 mice): 2/6; Positive Control %ILS ([2]; S180a, positive control 8 mg/kg cisplatin in 0.15 M NaCl ip): 65% and 80%; Positive Control Surv. ([2]; S180a, positive control 8 mg/kg cisplatin in 0.15 M NaCl ip, survivors per 6 mice): 1/6 and 3/6 |
